The values below come from DBAASP.

Converted amounts (≈) assume the structure as drawn.

Common to all, as to experiment: ≥ marks a high value that may be exact or a test limit, other limits are often not marked, values filed in µg/mL are converted to µM
In assay [1] the test system is Escherichia coli B.
The test system of assay [2] is Staphylococcus aureus.
Assay [3] concerns Bacillus subtilis 168.
Assay [4] deals with Micrococcus luteus CCM 144.
Assay [5] relates to Pseudomonas aeruginosa.
Assay [6] relates to Candida albicans F7-39/IDE99.
Assay [7] deals with Escherichia coli ATCC 25922.
Assay [8] has as its system Pseudomonas aeruginosa Ps4.
In assay [9] the test system is Escherichia coli K-12.
Assay [10] deals with Staphylococcus aureus USA 300.
For assay [11], the system named is Enterococcus faecalis ATCC 29212.
Assay [12] concerns Salmonella enterica subsp. enterica serovar Typhimurium C77-31.
Assay [13] deals with Bacillus subtilis CMCC 63501.
Assay [14] concerns Salmonella enterica subsp. enterica serovar Pullorum C79-13.
The test system of assay [15] is Staphylococcus epidermidis ATCC 12228.
Assay [16] deals with Pseudomonas aeruginosa ATCC 27853.
For assay [17], the system named is Staphylococcus aureus ATCC 29213.
Assay [18] deals with Staphylococcus aureus ATCC 6538.
The subject of assay [19] is Streptococcus mutans.

Usually MIC stands for the smallest concentration in the dilution series that meets the test's criterion for growth inhibition. A lower MIC goes with greater potency. For `CC[C@H](C)[C@H](NC(=O)[C@H](C)NC(=O)CNC(=O)[C@H](Cc1c[nH]c2ccccc12)NC(=O)[C@H](CC(N)=O)NC(=O)[C@@H](N)CC(C)C)C(=O)N[C@@H](CC(C)C)C(=O)N[C@@H](CCCCN)C(=O)N[C@@H](Cc1cnc[nH]1)C(=O)N[C@@H](CCCCN)C(=O)N[C@H](C(=O)N[C@@H](CCCCN)C(N)=O)[C@@H](C)CC` [LNWGAILKHKIK], the MIC is at least 100 µM in [1]; above 100 µM in assay [2]; at least 41.7 µM in assay [3]; 30 µM (≈ 42.6 µg/mL) in assay [4]; above 100 µM in assay [5]; at least 100 µM in [6].

For `CCC(C)C(NC(=O)C(CC(N)=O)NC(=O)C(CCCN=C(N)N)NC(=O)C(CCC(N)=O)NC(=O)C(Cc1c[nH]c2ccccc12)NC(=O)C(CCC(N)=O)NC(=O)C(N)Cc1ccccc1)C(=O)NC(CCCN=C(N)N)C(=O)NC(CCCCN)C(=O)NC(C(=O)NC(CCCN=C(N)N)C(N)=O)C(C)C` (stereo not drawn) [FQWQRNIRKVR], the MIC in assay [7] is above 163 µM; in [8], at least 163 µM.

As to `CC[C@H](C)[C@H](NC(=O)[C@H](CC(C)C)NC(=O)[C@@H]1CCCN1C(=O)[C@H](Cc1ccccc1)NC(=O)[C@H](CC(C)C)NC(=O)[C@@H](N)Cc1ccccc1)C(=O)N[C@H](C(=O)N[C@@H](CO)C(=O)N[C@@H](Cc1ccccc1)C(=O)N[C@@H](CC(C)C)C(=O)N[C@@H](CO)C(=O)N[C@@H](CCCCN)C(=O)N[C@H](C(=O)N[C@@H](CC(C)C)C(=O)O)C(C)C)[C@@H](C)O` [FLFPLITSFLSKVL], the MIC in [9] was at least 100 µM; in [2] it was 130 µM (≈ 211 µg/mL); in [10], at least 50 µM.

On to `NC(=O)[C@H](Cc1c[nH]c2ccccc12)NC(=O)[C@H](CCCN=C(N)N)NC(=O)[C@H](CS)NC(=O)[C@H](Cc1ccccc1)NC(=O)[C@H](CCCN=C(N)N)NC(=O)[C@H](CCCN=C(N)N)NC(=O)[C@H](CCCN=C(N)N)NC(=O)[C@H](CS)NC(=O)[C@H](CCCN=C(N)N)NC(=O)[C@@H](N)Cc1c[nH]c2ccccc12` [WRCRRRFCRW], for which the MIC in assay [11] worked out at 8 µM (≈ 12.2 µg/mL); in assay [12] it was 16 µM (≈ 24.4 µg/mL); in assay [13], 2 µM (≈ 3.05 µg/mL); in [14] it was 4 µM (≈ 6.1 µg/mL); in assay [7] it was 2 µM (≈ 3.05 µg/mL); in assay [15], 8 µM (≈ 12.2 µg/mL). Further, the MIC in assay [16] was above 128 µM; in [17], 8 µM (≈ 12.2 µg/mL).

Regarding `CC[C@H](C)[C@H](NC(=O)[C@H](CCCCN)NC(=O)[C@H](CC(N)=O)NC(=O)[C@H](CCCN=C(N)N)NC(=O)[C@@H](NC(=O)[C@H](CC(N)=O)NC(=O)[C@H](CCCN=C(N)N)NC(=O)[C@@H](NC(=O)[C@H](CCSC)NC(=O)[C@H](CCCCN)NC(=O)[C@H](CCC(=O)O)NC(=O)[C@@H](NC(=O)[C@H](CCCCN)NC(=O)[C@H](CCCCN)NC(=O)[C@H](Cc1ccccc1)NC(=O)[C@@H](NC(=O)[C@H](CCCCN)NC(=O)[C@H](Cc1c[nH]c2ccccc12)NC(=O)[C@@H](N)CCCCN)C(C)C)[C@@H](C)CC)[C@@H](C)CC)[C@@H](C)CC)C(=O)N[C@@H](C)C(=O)N[C@@H](CCCCN)C(N)=O` [KWKVFKKIEKMIRNIRNKIAK], the figures for the minimal inhibitory concentration (MIC) in [18], in [9] and in assay [16] were above 6 µM, 3 µM (≈ 8.01 µg/mL) and above 3 µM, respectively.

In assay [19], `NC(=O)[C@H](Cc1ccccc1)NC(=O)[C@H](CCCN=C(N)N)NC(=O)[C@H](Cc1cnc[nH]1)NC(=O)[C@H](Cc1ccccc1)NC(=O)[C@H](Cc1c[nH]c2ccccc12)NC(=O)[C@H](Cc1cnc[nH]1)NC(=O)[C@H](Cc1c[nH]c2ccccc12)NC(=O)[C@H](Cc1ccccc1)NC(=O)[C@H](Cc1ccc(O)cc1)NC(=O)[C@H](Cc1cnc[nH]1)NC(=O)[C@@H](N)Cc1ccccc1` [FHYFWHWFHRF] came in with a minimal inhibitory concentration (MIC) of at least 73.1 µM.

For the compound `CC(C)C[C@H](NC(=O)[C@H](CC(C)C)NC(=O)[C@H](Cc1cnc[nH]1)NC(=O)[C@H](Cc1cnc[nH]1)NC(=O)[C@H](CC(C)C)NC(=O)[C@H](CCCCN)NC(=O)[C@H](CCCCN)NC(=O)[C@H](CC(C)C)NC(=O)[C@H](CC(C)C)NC(=O)[C@H](CCCN=C(N)N)NC(=O)[C@H](CCCN=C(N)N)NC(=O)[C@H](Cc1c[nH]c2ccccc12)NC(=O)[C@H](CCCN=C(N)N)NC(=O)CNC(=O)CNC(=O)CNC(=O)[C@H](Cc1ccccc1)NC(=O)[C@H](CCCN=C(N)N)NC(=O)[C@H](CCCN=C(N)N)NC(=O)[C@H](Cc1ccccc1)NC(=O)[C@H](Cc1c[nH]c2ccccc12)NC(=O)[C@H](CCCCN)NC(=O)[C@H](Cc1c[nH]c2ccccc12)NC(=O)[C@H](Cc1ccccc1)NC(=O)[C@H](CCCCN)NC(=O)[C@H](CCCCN)NC(=O)[C@@H](N)Cc1ccccc1)C(=O)N[C@@H](Cc1cnc[nH]1)C(N)=O` [FKKFWKWFRRFGGGRWRRLLKKLHHLLH], the MIC in [19] came out at 4.28 µM (≈ 16 µg/mL).

In the case of `CC[C@H](C)[C@H](NC(=O)[C@H](CC(N)=O)NC(=O)[C@H](CCCN=C(N)N)NC(=O)[C@H](CCC(N)=O)NC(=O)[C@H](Cc1c[nH]c2ccccc12)NC(=O)[C@@H](N)Cc1ccccc1)C(=O)N[C@@H](Cc1c[nH]c2ccccc12)C(=O)N[C@@H](CCCN=C(N)N)C(=O)N[C@@H](CCCN=C(N)N)C(N)=O` [FWQRNIWRR], the MIC in assay [8] was at least 184 µM.

For `CC(C)C[C@H](NC(=O)[C@H](CCCCN)NC(=O)[C@H](CCCCN)NC(=O)[C@@H](N)C(C)C)C(=O)N[C@@H](C)C(=O)N[C@@H](CCCCN)C(=O)N[C@@H](CC(C)C)C(=O)N[C@H](C(=O)N[C@@H](CCCN=C(N)N)C(=O)N[C@@H](CCCN=C(N)N)C(=O)N[C@@H](Cc1ccccc1)C(N)=O)C(C)C` [VKKLAKLVRRF], the MIC in [19] stood at 16.7 µM (≈ 22.6 µg/mL).

Turning to `CC(C)C[C@H](NC(=O)CN)C(=O)N[C@@H](CCCCN)C(=O)N[C@@H](CCCCN)C(=O)N[C@@H](CC(C)C)C(=O)N[C@@H](CC(C)C)C(=O)NCC(=O)N[C@@H](CCCCN)C(=O)N[C@@H](CC(C)C)C(=O)N[C@@H](CC(C)C)C(=O)N[C@@H](CCCCN)C(=O)N[C@@H](CCCCN)C(=O)N[C@@H](CC(C)C)C(=O)NCC(=O)N[C@@H](CCCCN)C(=O)N[C@@H](CC(C)C)C(=O)N[C@@H](CC(C)C)C(=O)N[C@@H](CC(C)C)C(=O)N[C@@H](CCCCN)C(=O)O` [GLKKLLGKLLKKLGKLLLK], the MIC in assay [9] was 10 µM (≈ 21 µg/mL); in assay [10], at least 160 µM.

With `CC(C)C[C@H](NC(=O)[C@H](C)NC(=O)CNC(=O)[C@H](Cc1c[nH]c2ccccc12)NC(=O)[C@H](CC(N)=O)NC(=O)[C@@H](N)CC(C)C)C(=O)N[C@@H](CC(C)C)C(=O)N[C@@H](CCCCN)C(=O)N[C@@H](Cc1cnc[nH]1)C(=O)N[C@@H](CC(C)C)C(=O)N[C@@H](CC(C)C)C(=O)N[C@@H](CCCCN)C(N)=O` [LNWGALLKHLLK], the MIC in assay [1] was found to be 3.8 µM (≈ 5.34 µg/mL); in assay [2] it was 6.7 µM (≈ 9.41 µg/mL); in [3], 1.6 µM (≈ 2.25 µg/mL); in assay [4], 2.2 µM (≈ 3.09 µg/mL); in [5], 40 µM (≈ 56.2 µg/mL); in assay [6], 6.7 µM (≈ 9.41 µg/mL).

As to `CC(C)C[C@H](NC(=O)[C@H](C)NC(=O)[C@H](CCC(=O)O)NC(=O)[C@H](CCCCN)NC(=O)[C@H](C)NC(=O)[C@H](CCC(=O)O)NC(=O)[C@H](Cc1cnc[nH]1)NC(=O)[C@H](CC(C)C)NC(=O)[C@H](C)NC(=O)[C@@H](N)CCCN=C(N)N)C(=O)N[C@@H](CCCCN)C(=O)O` [RALHEAKEALK], in [19], the MIC was at least 198 µM.

In the case of `CC[C@H](C)[C@H](NC(=O)[C@H](Cc1cnc[nH]1)NC(=O)[C@H](CCCCN)NC(=O)[C@H](CC(C)C)NC(=O)[C@H](CCCCN)NC(=O)[C@H](C)NC(=O)CNC(=O)[C@H](Cc1c[nH]c2ccccc12)NC(=O)[C@H](CC(N)=O)NC(=O)[C@@H](N)CC(C)C)C(=O)N[C@H](C(=O)N[C@@H](CCCCN)C(N)=O)[C@@H](C)CC` [LNWGAKLKHIIK], the MIC is at least 100 µM in assay [1]; above 100 µM in assay [2]; at least 55.8 µM in assay [3]; at least 38.8 µM in assay [4]; above 100 µM in [5]; at least 50 µM in [6].

Consider `CC[C@H](C)[C@H](NC(=O)[C@H](CCCCN)NC(=O)[C@H](CCC(N)=O)NC(=O)[C@@H](NC(=O)[C@@H](NC(=O)[C@H](CCCCN)NC(=O)[C@H](CCCCN)NC(=O)[C@H](Cc1ccccc1)NC(=O)[C@H](CCC(=O)O)NC(=O)CN)[C@@H](C)CC)C(C)C)C(=O)N[C@@H](CCCCN)C(=O)N[C@@H](CC(=O)O)C(=O)N[C@@H](Cc1ccccc1)C(=O)N[C@@H](CC(C)C)C(=O)N[C@@H](CCCCN)C(=O)N[C@@H](CC(N)=O)C(=O)N[C@@H](CC(C)C)C(=O)N[C@H](C(N)=O)C(C)C` [GEFKKIVQKIKDFLKNLV], for which the figures for the MIC in assay [9] and in assay [10] were at least 60 µM and at least 120 µM, respectively.
